Our source for the pIC50 values is patent US8153809B2, “Dihydropyridone ureas as P2X7 modulators” (Roche Palo Alto LLC, priority 2008, dated 2012).

One may read the pIC50 as the IC50 on a negative log10 scale, so that one unit is a factor of ten. Low values mean a large IC50, high ones a small IC50.

In this test the target is T1, P2X7 (UniProt Q99572).
T1 sequence (Q99572 1-595): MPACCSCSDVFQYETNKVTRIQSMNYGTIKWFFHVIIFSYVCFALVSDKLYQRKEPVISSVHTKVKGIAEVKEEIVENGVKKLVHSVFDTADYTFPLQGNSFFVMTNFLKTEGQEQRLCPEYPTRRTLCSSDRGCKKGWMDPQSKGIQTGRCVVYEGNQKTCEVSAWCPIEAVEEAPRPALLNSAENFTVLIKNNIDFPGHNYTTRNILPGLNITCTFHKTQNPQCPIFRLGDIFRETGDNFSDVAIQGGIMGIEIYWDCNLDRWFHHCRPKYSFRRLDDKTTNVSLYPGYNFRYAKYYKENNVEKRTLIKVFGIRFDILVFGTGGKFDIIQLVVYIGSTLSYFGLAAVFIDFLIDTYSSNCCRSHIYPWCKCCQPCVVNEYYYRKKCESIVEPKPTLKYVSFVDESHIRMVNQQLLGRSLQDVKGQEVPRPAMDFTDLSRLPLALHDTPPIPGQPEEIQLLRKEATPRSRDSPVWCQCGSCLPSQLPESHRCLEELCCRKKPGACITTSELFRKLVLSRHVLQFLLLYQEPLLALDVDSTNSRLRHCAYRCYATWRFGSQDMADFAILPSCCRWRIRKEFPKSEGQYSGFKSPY
The test can be described thus: pIC50 values for P2X7 (Table 1). The class given is cell-based. Summed up: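 Fluo-3-loaded 1321N1 cells expressing human P2X7 or HEK293 cells expressing rat P2X7, preincubated 20 min at room temperature with antagonist in HBSS/Hepes/probenecid buffer with 2 mM CaCl2. BzATP agonist at 100 μM final (human) or 5 μM final (rat); fluorescence read 5 min, peak normalized to 5 μM ionomycin response.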
Regarding `COc1cc(NC(=O)N2C=CC(=O)C[C@H]2c2ccc(F)cc2)ccc1F` [Compound 76, (S)-2-(4-Fluoro-phenyl)-4-oxo-3,4-dihydro-2H-pyridine-1-carboxylic acid (4-fluoro-3-methoxy-phenyl)-amide], the pIC50 is listed as 6.76.

Turning to `Cc1cc(Br)c(NC(=O)N2C=CC(=O)C[C@H]2c2ccc(F)cc2)cc1C(=O)OC(C)(C)C` [Compound 77, 4-Bromo-5-{[(S)-2-(4-fluoro-phenyl)-4-oxo-3,4-dihydro-2H-pyridine-1-carbonyl]amino}-2-methyl-benzoic acid tert-butyl ester], the pIC50 came out at 6.67.

Consider `COc1cc(NC(=O)N2C=CC(=O)C[C@H]2c2cc(F)cc(F)c2)c(Br)cc1C` [Compound 78, (S)-2-(3,5-Difluoro-phenyl)-4-oxo-3,4-dihydro-2H-pyridine-1-carboxylic acid (2-bromo-5-methoxy-4-methyl-phenyl)-amide], for which the pIC50 worked out at 7.675.

`COc1cc(NC(=O)N2C=CC(=O)C[C@@H]2c2cc(F)cc(F)c2)c(Br)cc1C` [Compound 79, (R)-2-(3,5-Difluoro-phenyl)-4-oxo-3,4-dihydro-2H-pyridine-1-carboxylic acid (2-bromo-5-methoxy-4-methyl-phenyl)-amide] returned a pIC50 of 5.475.

For `COc1cc(NC(=O)N2C=CC(=O)CC2c2ccc(F)cc2)cc(OC)c1OC` (stereo not drawn) [Compound 80, 2-(4-Fluoro-phenyl)-4-oxo-3,4-dihydro-2H-pyridine-1-carboxylic acid (3,4,5-trimethoxy-phenyl)-amide], the negative logarithm of the IC50 (pIC50) was determined as 5.

`COc1cc(NC(=O)N2C=CC(=O)C[C@H]2c2ccc(F)c(F)c2)c(Br)cc1C` [Compound 81, (S)-2-(3,4-Difluoro-phenyl)-4-oxo-3,4-dihydro-2H-pyridine-1-carboxylic acid (2-bromo-5-methoxy-4-methyl-phenyl)-amide]: the pIC50 is given as 7.54.

`COc1cc(NC(=O)N2C=CC(=O)C[C@@H]2c2ccc(F)c(F)c2)c(Br)cc1C` [Compound 82, (R)-2-(3,4-Difluoro-phenyl)-4-oxo-3,4-dihydro-2H-pyridine-1-carboxylic acid (2-bromo-5-methoxy-4-methyl-phenyl)-amide] returned a pIC50 of 5.31.

In the case of `C[C@H](O)c1cc(NC(=O)N2C=CC(=O)C[C@H]2c2ccc(F)cc2)c(Br)cc1Cl` [Compound 83, (S)-2-(4-Fluoro-phenyl)-4-oxo-3,4-dihydro-2H-pyridine-1-carboxylic acid [2-bromo-4-chloro-5-((S)-1-hydroxy-ethyl)-phenyl]-amide], the pIC50 was 7.56.

As for `C[C@@H](O)c1cc(NC(=O)N2C=CC(=O)C[C@H]2c2ccc(F)cc2)c(Br)cc1Cl` [Compound 84, (S)-2-(4-Fluoro-phenyl)-4-oxo-3,4-dihydro-2H-pyridine-1-carboxylic acid [2-bromo-4-chloro-5-((R)-1-hydroxy-ethyl)-phenyl]-amide], the pIC50 was 6.67.

As to `O=C1C=CN(C(=O)Nc2c(F)cc(F)cc2Br)C(c2ccc(F)cc2)C1` (stereo not drawn) [Compound 85, 2-(4-Fluoro-phenyl)-4-oxo-3,4-dihydro-2H-pyridine-1-carboxylic acid (2-bromo-4,6-difluoro-phenyl)-amide], the pIC50 is given as 5.

`O=C1C=CN(C(=O)Nc2ccsc2Br)C(c2ccc(F)cc2)C1` (stereo not drawn) [Compound 86, 2-(4-Fluoro-phenyl)-4-oxo-3,4-dihydro-2H-pyridine-1-carboxylic acid (2-bromo-thiophen-3-yl)-amide] had a pIC50 of 6.725.

`CCc1cc(OC)c(OC)cc1NC(=O)N1C=CC(=O)C[C@H]1c1ccc(F)cc1` [Compound 87, (S)-2-(4-Fluoro-phenyl)-4-oxo-3,4-dihydro-2H-pyridine-1-carboxylic acid (2-ethyl-4,5-dimethoxy-phenyl)-amide] came in with a pIC50 of 8.36.

`COc1ccc(NC(=O)N2C=CC(=O)C[C@H]2c2cccc(F)c2)cc1OC` [Compound 88, (S)-2-(3-Fluoro-phenyl)-4-oxo-3,4-dihydro-2H-pyridine-1-carboxylic acid (3,4-dimethoxy-phenyl)-amide]: the pIC50 was found to be 6.32.

Compound `COc1ccc(NC(=O)N2C=CC(=O)C[C@H]2c2ccc(F)cc2)c(Br)c1` [Compound 89, (S)-2-(4-Fluoro-phenyl)-4-oxo-3,4-dihydro-2H-pyridine-1-carboxylic acid (2-bromo-4-methoxy-phenyl)-amide] came in with a pIC50 of 7.45.

As to `O=C1C=CN(C(=O)Nc2ccc3cc[nH]c3c2)C(c2ccc(F)cc2)C1` (stereo not drawn) [Compound 90, 2-(4-Fluoro-phenyl)-4-oxo-3,4-dihydro-2H-pyridine-1-carboxylic acid (1H-indol-6-yl)-amide], the pIC50 is on record as 6.615.

As to `Cc1cc2cc(NC(=O)N3C=CC(=O)CC3c3ccc(F)cc3)ccc2o1` (stereo not drawn) [Compound 91, 2-(4-Fluoro-phenyl)-4-oxo-3,4-dihydro-2H-pyridine-1-carboxylic acid (2-methyl-benzofuran-5-yl)-amide], the negative-log IC50 (pIC50) came out at 6.315.

`Cc1cc(Cl)c(OCCO)cc1NC(=O)N1C=CC(=O)C[C@H]1c1ccc(F)cc1` [Compound 92, (S)-2-(4-Fluoro-phenyl)-4-oxo-3,4-dihydro-2H-pyridine-1-carboxylic acid [4-chloro-5-(2-hydroxy-ethoxy)-2-methyl-phenyl]-amide] had a pIC50 of 8.023.

As for `COC(=O)c1cccc(NC(=O)N2C=CC(=O)C[C@H]2c2ccc(F)cc2)c1C` [Compound 93, 3-{[(S)-2-(4-Fluoro-phenyl)-4-oxo-3,4-dihydro-2H-pyridine-1-carbonyl]-amino}-2-methyl-benzoic acid methyl ester], the pIC50 is reported as 7.44.

Consider `COC(=O)c1cccc(NC(=O)N2C=CC(=O)C[C@@H]2c2ccc(F)cc2)c1C` [Compound 94, 3-{[(R)-2-(4-Fluoro-phenyl)-4-oxo-3,4-dihydro-2H-pyridine-1-carbonyl]-amino}-2-methyl-benzoic acid methyl ester], for which the pIC50 is listed as 6.13.

For `Cc1ccc(C)c(NC(=O)N2C=CC(=O)C[C@H]2c2ccc(F)cc2)c1` [Compound 95, (S)-2-(4-Fluoro-phenyl)-4-oxo-3,4-dihydro-2H-pyridine-1-carboxylic acid (2,5-dimethyl-phenyl)-amide], the pIC50 turned out to be 7.9775.

The compound `COc1ccc(Br)c(NC(=O)N2C=CC(=O)C[C@H]2c2ccc(F)cc2)c1` [Compound 96, (S)-2-(4-Fluoro-phenyl)-4-oxo-3,4-dihydro-2H-pyridine-1-carboxylic acid (2-bromo-5-methoxy-phenyl)-amide] displayed a pIC50 of 7.875.

In the case of `Cc1cccc(NC(=O)N2C=CC(=O)C[C@H]2c2ccc(F)cc2)c1C` [Compound 97, (S)-2-(4-Fluoro-phenyl)-4-oxo-3,4-dihydro-2H-pyridine-1-carboxylic acid (2,3-dimethyl-phenyl)-amide], the pIC50 worked out at 7.74. The pIC50 values of the last two compounds are within 0.2 log units of each other.

Take `O=C1C=CN(C(=O)Nc2cc(CO)c(Cl)cc2Br)[C@H](c2ccc(F)cc2)C1` [Compound 98, (S)-2-(4-Fluoro-phenyl)-4-oxo-3,4-dihydro-2H-pyridine-1-carboxylic acid (2-bromo-4-chloro-5-hydroxymethyl-phenyl)-amide]: the pIC50 is 7.475.

Consider `Cc1cc(C)c(Br)c(NC(=O)N2C=CC(=O)C[C@H]2c2ccc(F)cc2)c1` [Compound 99, (S)-2-(4-Fluoro-phenyl)-4-oxo-3,4-dihydro-2H-pyridine-1-carboxylic acid (2-bromo-3,5-dimethyl-phenyl)-amide], for which the pIC50 was 7.98.
